The record followed here is article PMC9612231, “Antileishmanial Anthracene Endoperoxides: Efficacy In Vitro, Mechanisms and Structure-Activity Relationships” (Molecules, 2022).

The structures appear in SMILES notation. Like-named read-outs stand apart in the source and are kept apart here.

Assay [1] concerns Leishmania tarentolae promastigotes (LtP). Nature of the assay: Resazurin viability assay for LtP. It counts as cell-based. The settings on record: for IC50: Leishmania tarentolae, read-out: LtP IC50; for Selectivity IC50,J774/IC50,LtP: ratio of IC50 in J774 macrophages to IC50 in LtP; for IC50,non-EP/IC50,EP: ratio of IC50 of non-EP in LtP versus IC50 of respective EP. As to the method: (§1) The influence of AcEP and their analogs (Ac) on the viability of cells was tested in Leishmania tarentolae promastigotes (LtP) and J774 macrophages (Table 2). Based on the changes of viability of the respective cell lines at different compound concentrations, IC50 values were calculated. In Table 2, the IC50 values in both cell lines were compared for the individual compounds. From the ratio of IC50 values in J774 macrophages to IC50 values in LtP, an in vitro selectivity was calculated.
LtP (strain P10 from Jena Bioscience, Jena, Germany) were cultivated according to manufacturer instructions up to passage 50 in brain heart infusion medium (37 g/L, pH 7.4) and supplemented with 5 mg/L hemin and 25,000 IU/L penicillin and 25 mg/L streptomycin in 50 mL TubeSpin bioreactors (TPP, Trasadingen. Switzerland). LtP were grown at 27 °C in an incubator (Ehret, Emmendingen, Germany) and agitated at a frequency of 0.05 s^−1. […] For experiments, LtP were used one day after passage. The cell number was calculated by measuring the optical density (OD) of the culture at 600 nm with a U-1100 photometer (Hitachi Ltd., Tokyo, Japan) and applying the formula × 10^6 cells/mL = OD600nm × 0.969 × 124 × dilution factor [53].
Assay medium of YEM (20.7 g/L yeast extract powder, 1.2 g/L K2HPO4, 0.2 g/L KH2PO4, 2.9 g/L glucose, pH 7.4) and PBS (1:1, v/v), 25,000 U/L penicillin, 25 mg/L streptomycin, and 7.7 µM hemin was prepared. Aliquots of 200 µL of this medium and 2 × 10^6 LtP/mL (where required) were distributed in non-treated cell culture 96-well plates. Compounds (dissolved in DMSO) were added with starting concentrations of 25 µM (Pen) or 200 µM (AcEP/Ac), and then, serial dilutions were carried out resulting in a set of concentrations (25, 5, 1, 0.2, 0.04, and 0.008 µM) or (200, 40, 8, 1.6, 0.32, and 0.064 µM). For each compound concentration, at least triplicates on each plate were performed. After incubation of the plates at 27 °C for 48 h, 50 µL of resazurin solution (final concentration in wells 20 µM) was added to each well and after 4 h of incubation, the fluorescence was measured at 560 nm excitation and 590 nm emission using a plate reader (Perkin Elmer EnSpire, Rodgau, Germany) (adapted from). Combination assays for viability in the presence of PIH and NAC were performed the same way. […] All tests were repeated at least on four different weeks of cultivation.
(§2) Calculations were carried out using Microsoft Excel 2016 (Microsoft). The graphs were created using Origin 6.1 (OriginLab Corporation, Northampton, MA, USA). For all groups of experimental data, mean and standard deviation (SD) were calculated. Statistically significant differences between groups of sample data were identified by unpaired two-tailed Student’s t-test. Differences on the level of p < 0.05 were considered significant. The number of replicates is indicated at the respective figures/tables. The half-maximal inhibitory concentrations (IC50) were determined from non-linear concentration-response curves using a four-parameter logistic model and expressed as the mean ± SD.
For orientation: The colour change of resazurin is a common sign of viable cells or microbes.

For another assay, the system named is J774 macrophages. The assay is described as follows: Resazurin viability assay for J774 macrophages. Conditions: read-out: J774 IC50. Format: cell-based, murine. Here is the method: as §1
The murine macrophage cell line J774A.1 (ATCC, TIB-67™, Wesel, Germany) was cultivated up to passage 30 in DMEM (high glucose, 3.7 g/L NaHCO3, pH 7.4) with 25,000 IU/L penicillin, 25 mg/L streptomycin, and 10% FCS (heat-inactivated) in 50 mL TubeSpin bioreactors. J774 cells were incubated at 37 °C and 5% CO2 on a roller culture apparatus (5 rpm) in a Heraeus Cytoperm 8080 incubator (Thermo Electron Corp., Vienna, Austria). To determine the cell count, the cell suspension was re-suspended and diluted 1:2 with phosphate-buffered saline (PBS): 137 mM NaCl, 1.4 mM KH2PO4, 4.3 mM Na2HPO4, and 2.7 mM KCl, pH 7.4. After fixation of the cells by mixing the cell suspension 1:1 with a formaldehyde solution (2%, v/v), aliquots of the resulting suspension were transferred into a standard Neubauer chamber (VWR, Austria) and counted manually using a light microscope (Motic BA310, Vienna, Austria) at a magnification of 40 times. J774 cells were passaged twice a week in a ratio of 1:10.
DMEM containing 25,000 U/L penicillin, 25 mg/L streptomycin, 10% FCS, and 1 × 10^5 J774/mL was prepared. This mixture (200 µL) was distributed in cell culture-treated 96-well plates, except the control wells which contained only DMEM. The cells were incubated for 24 h at 37 °C and 5% CO2 to allow attachment. Afterwards the medium and non-adherent cells were removed by washing with PBS, and then, 200 µL DMEM was added to attached cells. Compounds dissolved in DMSO were added in starting concentrations of 25 µM (Pen) or 200 µM (AcEP/Ac), and then, serial dilutions were carried out resulting in the same concentration steps as listed for LtP. For each compound concentration triplicates on each plate were performed. […], 50 µL of resazurin solution (final concentration 20 µM) was added, and after 4 h of incubation, the fluorescence was measured at 560 nm excitation and 590 nm emission using a plate reader (Perkin Elmer EnSpire, Rodgau, Germany). All tests were repeated at least on four different weeks of cultivation.
as §2

Assay [2] can be described thus: Formation of the xylenol orange/Fe3+ complex by EP. Conditions: AcEP and 250 µM FeSO4 in methanol/H2O (9:1); for XO/Fe^3+ Formation Rate: mean ± SD of 3 experiments. The text has this:
In subsequent experiments, we explored the activation of EP and possible cellular consequences of these compounds in Leishmania. In a chemical system, we tested how fast EP react with iron (II) and, therefore, lead to the activation of these compounds. Resulting iron (III) was detected as complex with xylenol orange (XO, Figure 3). The reaction rate of the EP stretched across two magnitudes of orders (Table 3). On the first view, there is no direct link between the activation rates and the efficiency of the compounds against Leishmania.
XO (125 µM) and butylated hydroxytoluene (4 mM) were dissolved in MeOH/H2O (9:1). FeSO4 (25 mM) in 2.5 M H2SO4 was prepared immediately before use (final concentration of 250 µM FeSO4 in the color reagent). An aliquot of 100 µL EP solution (final concentration of 100 µM) was transferred into a disposable cuvette (BRAND, Wertheim, Germany), and 1 mL of the color reagent was added. The EP that reacted slower were incubated for 0, 30, 60, and 90 min at 25 °C. The EP that reacted faster were measured every 5 s over 5 min. At these time points, the OD difference of the sample at 560 nm and 650 nm was determined using a MS1501 UV–VIS diode array spectrophotometer (Shimadzu, Kyoto, Japan). As reference, a mixture of MeOH/H2O (9:1) was used. The slope of the reaction rate was calculated using an extinction coefficient of 1.5 × 10^4 M^−1 cm^−1.

[3] abbreviates: resazurin viability, endpoint 48 h, 2 × 10^6 LtP/mL, mean ± SD of 4–8 experiments.
Where [4] appears, read: Mus musculus, J774, 48 h, resazurin viability, endpoint 48 h, 10^5 J774 cells/mL, mean ± SD of 4–8 experiments.

For `N=C(N)c1ccc(OCCCCCOc2ccc(C(=N)N)cc2)cc1` [Pen, pentamidine, reference compound], the IC50 (usually the concentration at which inhibition is half-maximal) in assay [1] (setting [3]) was 0.52 ± 0.16 µM; with J774 macrophages (setting [4]), approximately 12 µM; with J774 macrophages (resazurin viability, endpoint 48 h, 10^5 J774 cells/mL, mean ± SD of 4–8 experiments) it was 12.3 ± 3.96 µM. Further, the “LtP IC50” value in assay [1] (setting [3]) is given as “submicromolar”.

`CC(=O)OCC1OC(OC23OOC(OC4OC(COC(C)=O)C(OC(C)=O)C(OC(C)=O)C4OC(C)=O)(c4ccccc42)c2ccccc23)C(OC(C)=O)C(OC(C)=O)C1OC(C)=O` (centres unmarked) [BisGluAcEP]: the IC50 in assay [1] (setting [3]) was more than 200 µM. Moreover, the IC50 in the assay with J774 macrophages (setting [4]) was more than 200 µM. For the same compound, in assay [2], the “Log10 (Formation Rate)” value is recorded as 3.83 and the “XO/Fe^3+ Formation Rate” value is reported as 6800 ± 326 nmol/min.

In the case of `c1ccc(-c2c3ccccc3c(-c3ccccn3)c3ccccc23)nc1` [oPyAc], the IC50 was determined as 34.5 ± 12.8 µM in assay [1] (setting [3]) and 70 ± 10.5 µM in the assay with J774 macrophages (setting [4]). Further, in assay [1], the “Selectivity IC50,J774/IC50,LtP” value came to 2.0.

Consider `c1cncc(C23OOC(c4cccnc4)(c4ccccc42)c2ccccc23)c1` [mPyAcEP], for which, in assay [1] (setting [3]), the IC50 was more than 200 µM. In assay [1], the “IC50,non-EP/IC50,EP” value was less than 0.26. Further, the IC50 in the assay with J774 macrophages (setting [4]) is more than 200 µM. For the same compound, in assay [2], the “Log10 (Formation Rate)” value turned out to be 2.85 and the “XO/Fe^3+ Formation Rate” value amounted to 708 ± 37 nmol/min.

In the case of `c1ccc(-c2c3ccccc3c(-c3ccccc3)c3ccccc23)cc1` [DPAc], the figures for the IC50 (in assay [1] (setting [3]); in the assay on J774 macrophages (setting [4])) were 197 ± 92 µM and 136 ± 35 µM, respectively. For the same compound, the “Selectivity IC50,J774/IC50,LtP” value in assay [1] is 0.7. For the same compound, the “Activity against LtP, in words” value in assay [1] (viability assay) was “rather inactive”.

Turning to `CC(C)(C)c1ccc2c(-c3ccccn3)c3ccccc3c(-c3ccccn3)c2c1` [pPyBuAc], the IC50 in assay [1] (48 h) was 1.86 ± 1.1 µM; in the assay on J774 macrophages (Mus musculus, J774, 48 h) it was 107 ± 46 µM. For the same compound, the “Selectivity IC50,J774/IC50,LtP” value in assay [1] came out at 57.

For the compound `CC(=O)OCC1OC(OC23OOC(c4ccccc42)c2ccccc23)C(OC(C)=O)C(OC(C)=O)C1OC(C)=O` (centres unmarked) [MonoGluAcEP], in assay [1] (setting [3]), the IC50 amounted to 32.3 ± 23.4 µM. Besides, in assay [1], the “Selectivity IC50,J774/IC50,LtP” value is recorded as 4.7 and the “IC50,non-EP/IC50,EP” value came out at 4.89. In addition, the IC50 in the assay with J774 macrophages (setting [4]) worked out at 153 ± 82.1 µM. Also, in assay [2], the “Log10 (Formation Rate)” value is listed as 4.10 and the “XO/Fe^3+ Formation Rate” value is given as 12,697 ± 1500 nmol/min.

Take `c1cncc(-c2c3ccccc3c(-c3cccnc3)c3ccccc23)c1` [mPyAc]: the figures for the IC50 (in assay [1] (setting [3]); in the assay on J774 macrophages (setting [4])) were 52.5 ± 3.3 µM and 63.7 ± 7.6 µM, respectively. Moreover, the “Selectivity IC50,J774/IC50,LtP” value in assay [1] was 1.2.

As for `CC(=O)OCC1OC(Oc2c3ccccc3cc3ccccc23)C(OC(C)=O)C(OC(C)=O)C1OC(C)=O` (centres unmarked) [MonoGluAc], the IC50 in assay [1] (setting [3]) came out at 158 ± 45.1 µM; in the assay with J774 macrophages (setting [4]), 101 ± 7.8 µM. Moreover, in assay [1], the “Selectivity IC50,J774/IC50,LtP” value is reported as 0.6.

For `CC(=O)OCC1OC(C23C=C(C(C)(C)C)C(C4OC(COC(C)=O)C(OC(C)=O)C(OC(C)=O)C4OC(C)=O)(OO2)c2ccccc23)C(OC(C)=O)C(OC(C)=O)C1OC(C)=O` (centres unmarked) [MB359EP], in assay [1] (setting [3]), the IC50 was more than 200 µM. In addition, in the assay on J774 macrophages (setting [4]), the half-maximal inhibitory concentration (IC50) was more than 200 µM. For the same compound, in assay [2], the “Log10 (Formation Rate)” value was 4.26 and the “XO/Fe^3+ Formation Rate” value is 18,533 ± 1147 nmol/min.

With `COc1ccccc1-c1c2ccccc2c(-c2ccccc2OC)c2ccccc12` [oOMeAc], the IC50 in assay [1] (setting [3]) was 73.3 ± 25.2 µM; in the assay with J774 macrophages (setting [4]), more than 200 µM. Moreover, in assay [1], the “Selectivity IC50,J774/IC50,LtP” value was more than 2.7.

As for `c1ccc2c(c1)C1OOC2c2ccccc21` [AcEP], the IC50 in assay [1] (setting [3]) is 19.7 ± 14.1 µM. In assay [1], the “Selectivity IC50,J774/IC50,LtP” value is 0.06 and the “IC50,non-EP/IC50,EP” value was more than 10.1. For the same compound, the IC50 in the assay with J774 macrophages (setting [4]) turned out to be 1.21 ± 0.32 µM. For the same compound, in assay [2], the “Log10 (Formation Rate)” value worked out at 3.90 and the “XO/Fe^3+ Formation Rate” value was 8110 ± 4197 nmol/min.

On to `CC(=O)OCC1OC(Oc2c3ccccc3c(OC3OC(COC(C)=O)C(OC(C)=O)C(OC(C)=O)C3OC(C)=O)c3ccccc23)C(OC(C)=O)C(OC(C)=O)C1OC(C)=O` (centres unmarked) [BisGluAc], for which the IC50 (in assay [1] (setting [3]); with J774 macrophages (setting [4])) was more than 200 µM in each case.
